Consider 1 compound from patent US20190350955A1, “METHODS AND PHARMACEUTICAL COMPOSITIONS FOR THE TREATMENT OF CARDIOMYOPATHIES” (INSERM (Institut National de la Sante et de la Recherche …, priority 2016, published 2019).

Molecules are shown by their SMILES.

For one test, the system named is Nmrk2. Nature of the test: RT qPCR of Nmrk2 mRNA in NRC. The note with it: AICAR treatment. It is filed as cell-based, rat. How it is done: cDNAs were reverse transcribed from RNA (1.5 μg) extracted in TRIzol (Thermofisher) from cell cultures and tissues using the Superscript II Reverse Transcriptase (Life Technologies). Quantitative PCR was carried out on a Light Cycler 480 (Roche Diagnostics) using Fast Start SYBR Green Master (Roche Diagnostics). Quantification of gene expression was calculated as R=2^ΔCt(Ref Cp−target Cp), with Hprt used as a as reference. Primers were designed using the NCBI Primer-BLAST software. Primer sequences are available on request.
(§1) Isolation and Treatments of Neonatal Rat Cardiomyocytes (NRC) NRC were isolated as described previously (Diguet et al., 2011). 1-day-old rat pups were killed by decapitation and the cardiac ventricles were harvested and minced into 1 to 2-mm wide cubes with scissors. After washing with Tyrode solution, heart fragments were subjected up to 10 rounds of digestion with 0.05 mg/ml of Liberase Blendzyme 4 (Roche Applied Science) in 10 ml oxygenated Tyrode solution under agitation at 37° C. for 10 minutes. The supernatant of the first digestion was discarded and the following digestions were centrifuged and the cell pellet dissociated in 2 ml of DMEM, 10% FCS. The different fractions were pooled and centrifuged on a discontinuous Percoll gradient (bottom 58.5%. top 40.5%. 30 min. 3000 rpm) to enrich in cardiomyocytes at the interface between the 2 Percoll solutions. […]

For test [1], the system named is neonatal rat cardiomyocytes (NRC). Nature of the test: Western blot of AMPK phosphorylation and Nmrk2 protein in NRC. It is filed as cell-based. Particulars: AICAR 500 μM, 48 h. How it is done:
Proteins were homogenized in a lysis buffer (Tris-HCl pH 7.5 50 mM, NP40 Igepal 1%, NaCl 150 mM, EDTA 1 mM, DTT 1 mM, Glycerol 10%) in the presence of proteases.
phosphatases and deacetylases inhibitors (PMSF 0.5 mM, NaF 50 mM, PPiNa 5 mM, Roche protease cocktail inhibitor 1/100, Santa Cruz deacetylase cocktail inhibitor 1/100). Equal amounts of proteins (10 to 20 μg) were separated on SDS-PAGE and transferred to nitrocellulose membranes. Proteins were detected by overnight incubation at 4° C. with primary antibodies, followed by IRDye 700 or IRDye800 fluorescent antibodies (Li-Cor Biosciences. 1/2500) and scanned on an Odyssey CLx Infrared Imaging System (Li-Cor Biosciences).
as §1, with “FCS.” for “FCS. The different fractions were pooled and centrifuged on a discontinuous Percoll gradient (bottom 58.5%. top 40.5%. 30 min. 3000 rpm) to enrich in cardiomyocytes at the interface between the 2 Percoll solutions.”

A further test relates to Nmrk2 promoter. Nature of the test: Nmrk2 promoter luciferase reporter assay in NRC. The class given is cell-based, rat. Particulars: NRC, AICAR 500 μM. How it is done:
Isolation and Treatments of Neonatal Rat Cardiomyocytes (NRC) NRC were isolated as described previously (Diguet et al., 2011). 1-day-old rat pups were killed by decapitation and the cardiac ventricles were harvested and minced into 1 to 2-mm wide cubes with scissors. After washing with Tyrode solution, heart fragments were subjected up to 10 rounds of digestion with 0.05 mg/ml of Liberase Blendzyme 4 (Roche Applied Science) in 10 ml oxygenated Tyrode solution under agitation at 37° C. for 10 minutes. The supernatant of the first digestion was discarded and the following digestions were centrifuged and the cell pellet dissociated in 2 ml of DMEM, 10% FCS. The different fractions were pooled and centrifuged on a discontinuous Percoll gradient (bottom 58.5%. top 40.5%. 30 min. 3000 rpm) to enrich in cardiomyocytes at the interface between the 2 Percoll solutions. Non cardiac cells containing mainly fibroblasts were at the top of the tubes. Neonatal cardiomyocytes were seeded at a density 5×10^5 cells/well in 6-well plates coated with 10 μg/ml of laminin (BD Biosciences) in DMEM without pyruvate, with glucose 4.5 g/l, 10% horse serum, 5% FCS and cultured at 37° C. in 1% CO, atmosphere. To assay the impact on NAD^+ and Nmrk2 expression, Azaserin and FK866 drugs were added in the culture medium at day 5 and renewed everyday when the treatment was prolonged over several days. The same was done for NAD^+, NR and AICAR (5-aminoimidazole-4-carboxamide-1-β-D-ribofuranoside). AICAR was administrated for 24 h only. Doses are indicated in the legends. For treatment of transfected cells (see next section), AICAR, FK866 and PPAR agonists and antagonist were administrated 1 day after transfection. PPAR agonists: GW7647 for PPARα, GW501516 for PPARβ/δ and GW1929 for PPARγ; PPAR antagonists: GW6471 PPARα, GSK3787 for PPARβ/δ and GW9662 for PPARγ were ordered from SIGMA ALDRICH CHIMIE, Saint Quentin Fallavier, France.
The transcription initiation site of mouse Nmrk2 promoter was determined by 5′RACE and was conform to the reported site in the Genebank (NM_027120.2). The promoter of the mouse Nmrk2 gene was cloned from C57B16/N genomic DNA by PCR, and inserted into a pGL4.10[luc2] luciferase reporter plasmid (Promega prod no E6651). Subsequent deletions were performed by enzymatic digestion or primer mediated subcloning of the original fragment. 2.5×10^5 cardiomyocytes in 12-well plates were co-transfected at day 2 of culture with 1 μg of Nmrk2 pGL4.10[luc2] constructs and 100 ng of pGL4.73[hRluc/SV40] Vector (Promega prod no E6911) as an internal control of transfection efficiency using Lipofectamine 2000 (Lifetechnology) as indicated by the supplier. In the case of AICAR treatment, Luciferase activity was analyzed 48 h later with the Dual-Luciferase Assay System (Promega).
The pcDNA3 vectors harboring dominant negative AMPK, PPARα, PPARβ and PPARγ as well as RXR genes were kindly provided by Pr. Michel Raymondjean (El Hadri et al. (2015). AMPK Signaling Involvement for the Repression of the IL-1beta-Induced Group IIA Secretory Phospholipase A2 Expression in VSMCs. Journal 10, e0132498; Ravaux et al. (2007). Inhibition of interleukin-1 beta-induced group 11A secretory phospholipase A2 expression by peroxisome proliferator-activated receptors (PPARs) in rat vascular smooth muscle cells: cooperation between PPARbeta and the proto-oncogene BCL-6. Journal 27, 8374-8387; Woods et al. (2000). Characterization of the role of AMP-activated protein kinase in the regulation of glucose-activated gene expression using constitutively active and dominant negative forms of the kinase. Journal 20, 6704-6711). These vectors were cotransfected at a dose of 100 ng/well in 24-well plates with 500 ng of Nmrk2 luciferase constructs.

The subject of test [2] is neonatal rat cardiomyocytes (NRC). Nature of the test: NAD+ and NADH levels in NRC. It is filed as cell-based. The note with it: AICAR treatment. Here is the method: For cell cultures, the wells were washed twice with PBS and scraped on ice in HClO4 0.5M (100 μl/well in 12-well plate). Acid extracts were neutralized with a half volume of KOH 1M/K2HPO4-KH2PO4 0.33 M pH 7.5. Heat denaturation was selective for NAD^+ in this condition. Measures were made on a volume of […], of non heated extracts (NADt) or 25 μl of heated extracts (NADH) (diluted 1/10 to 1/20).
For both types of extracts (buffered ethanol or HClO4) we added 100 μL of reaction buffer (600 mM ethanol, 0.5 mM 3-(4.5-dimethylthiazol-2-yl)-2.5-diphenyltetrazolium bromide (MTT), 2 mM phenazine ethosulfate (PES), 120 mM Bicine (pH 7.8), yeast alcohol dehydrogenase (SIGMA A3263>300 u/mg.) 0.05 mg/ml. Kinetics of the reaction (OD at 550 nm, every 30 seconds for 40 minutes) was followed on a TECAN Infinite F500 microplate reader. NAD was quantified in duplicates for each sample by comparison to a range of standard NAD^+ concentration using linear regression curve equation method between NAD^+ standard concentrations and the slope of the reaction in OD units/sec. NAD^+/NADH was obtained by the formula ([NADt]−[NADH])/[NADH]. Cell extracts were quantified for protein concentration determined by Bradford assay.
Isolation and Treatments of Neonatal Rat Cardiomyocytes (NRC) NRC were isolated as described previously (Diguet et al., 2011). […]

In the case of `NC(=O)c1ncn([C@@H]2O[C@H](COP(=O)(O)O)[C@@H](O)[C@H]2O)c1N` [AICAR, 5-Aminoimidazole-4-carboxamide ribonucleotide], the “Nmrk2 expression (mRNA)” value in the test on Nmrk2 is on record as “robustly induced”. Further, in test [1], the AMPK phosphorylation result is given as “stimulated” and the “Nmrk2 expression at the protein level” value was “induced”. In the test with Nmrk2 promoter, the “full-length p3009-Luc Nmrk2 reporter response” value is “highly responsive” and the “p581-Luc Nmrk2 reporter response” value is recorded as “modestly responsive”. Further, the “NAD+ or NADH levels” value in test [2] is reported as “did not modulate”.
